Test system: Fall Army Worm, Spodoptera frupperda
Experiment: Larvae feeding on transgenic Arabidopsis plants, mortality
Type: in vivo
Settings: relative to control plants
Procedure: The mortality of moth larvae species was assayed examining the feeding of the three genotypes of transgenic plants relative to each other and relative to wild-type plant controls. An initial result indicates extremely high expression levels of the B.t. and B.t.B expressed from the ACTIN 2 A2pt cassette can be achieved. […] Cry1Ac (plant line Cry1#31, Table 2). The mortality of Fall Army Worm, Spodoptera frupperda, which is 100-fold less sensitive to Cry1Ac, was assayed feeding on these plants.

**Q.** How did the “killing of the Fall Army Worm feeding on transgenic plants” value turn out when “B.t. Cry1Ac: Bacillus thuringiensis toxin Cry1Ac expressed in transgenic Arabidopsis from A2pt::Cry1Ac (SEQ ID NO: 1)” was run?
**A.** The value was “weak killing activity”.

Reference: patent publication US20110263487A1, “Plant Production and Delivery System for Recombinant Proteins as Protein-Flour or Protein-Oil Compositions” (University of Georgia Research Foundation, Inc., priority 2007, published 2011)
